Results published in ChEMBL document CHEMBL1201862, “PubChem BioAssay data set” (2004).
Calls of active or inactive are those of the source.

Key:
[1] = fluconazole-exposed Candida albicans growth modulators – fluorescence, retest, confirmation (AID 2467); type: functional, cell-based
[2] = CellTiter-Glo luminescence survival assay, SW480 colon tumor line, concentration-response curve, half-maximal inhibitory concentration (AID 1117338); type: functional
[3] = Reduced DLD-1 viability, concentration-response, CellTiter-Glo luminescence (AID 1117352); type: functional
Cytochrome P450 2D6 = Cytochrome P450 2D6 (Homo sapiens, UniProt P10635);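 note: CYP2D6 member of a cytochrome P450 panel assay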
[4] = target: Protein kinase C theta type (Homo sapiens, UniProt Q04759); test: Navigating the Kinome. Panel member name: PRKCQ; type: functional
[5] = target: ALK tyrosine kinase receptor (Homo sapiens, UniProt Q9UM73); type: functional;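 note: ALK tested as one member of a kinase panel screen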
[6] = target: Serine/threonine-protein kinase PLK4 (Homo sapiens, UniProt O00444); type: functional;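 note: PLK4 measured as one member of a kinome-wide kinase profiling panel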
[7] = target: Calcium/calmodulin-dependent protein kinase type II subunit gamma (Homo sapiens, UniProt Q13555); type: functional
[8] = target: Serine/threonine-protein kinase D3 (Homo sapiens, UniProt O94806); type: functional;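 note: determined within a kinase panel screen, with PRKCN as the panel member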
[9] = target: Tyrosine-protein kinase Lck (Homo sapiens, UniProt P06239); type: functional;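 note: lck was assayed as one member of a kinase panel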
[10] = target: Death-associated protein kinase 3 (Homo sapiens, UniProt O43293); type: functional;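 note: measured as one member of a kinome-wide profiling panel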
[11] = target: Ribosomal protein S6 kinase alpha-5 (Homo sapiens, UniProt O75582); type: functional
[12] = target: Glycogen synthase kinase-3 alpha (Homo sapiens, UniProt P49840); type: functional;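 note: GSK3A result taken from a broad kinome-wide kinase panel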
[13] = target: Platelet-derived growth factor receptor beta (Homo sapiens, UniProt P09619); type: functional;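 note: value comes from a kinome panel, with PDGFRB tested as one panel member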
[14] = target: MAP kinase-interacting serine/threonine-protein kinase 2 (Homo sapiens, UniProt Q9HBH9); type: functional
[15] = target: Vascular endothelial growth factor receptor 2 (Homo sapiens, UniProt P35968); type: functional
Ephrin type-A receptor 2 = Ephrin type-A receptor 2 (Homo sapiens, UniProt P29317); type: functional;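 note: EPHA2 tested as one member of a kinome-wide kinase panel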
[16] = target: Maternal embryonic leucine zipper kinase (Homo sapiens, UniProt Q14680); type: functional
[17] = target: Platelet-derived growth factor receptor alpha (Homo sapiens, UniProt P16234); test: Navigating the Kinome. Panel member name: PDGFRA; type: functional
[18] = target: Tyrosine-protein kinase Fer (Homo sapiens, UniProt P16591); type: functional;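 note: FER tested as one member of a kinome panel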
[19] = target: Tyrosine-protein kinase Fyn (Homo sapiens, UniProt P06241); type: functional
[20] = target: Serine/threonine-protein kinase PLK1 (Homo sapiens, UniProt P53350); type: functional;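 note: PLK1 measured as one member of a kinome-wide profiling panel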
[21] = target: Cyclin-dependent kinase 9 (Homo sapiens, UniProt P50750); type: functional;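 note: value from the CDK9 entry of a kinome-spanning kinase panel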
[22] = target: BDNF/NT-3 growth factors receptor (Homo sapiens, UniProt Q16620); type: functional;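 note: NTRK2 measured as one member of a broad kinome-wide kinase profiling panel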
[23] = target: Tyrosine-protein kinase FRK (Homo sapiens, UniProt P42685); type: functional;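 note: FRK tested as one member of a kinome panel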
HEK293 = test: inhibition of NOD1-driven NF-kB reporter – cell-based, luminescence, uHTS, primary screen (AID 1578); type: functional; details: Homo sapiens
[24] = Luminescence Cell-Based Dose Response HTS to Identify Inhibitors of 5'UTR Stem-Loop Driven Prion Protein mRNA Translation in H4 Neuroglioblastoma Cells. [Related pubchem assays: 1827 (Project Summary), 1813 (Primary HTS)]; type: functional
[25] = target: T1, Apoptotic protease-activating factor 1 (Homo sapiens, UniProt O14727); type: functional
T1 sequence (O14727 whole entry): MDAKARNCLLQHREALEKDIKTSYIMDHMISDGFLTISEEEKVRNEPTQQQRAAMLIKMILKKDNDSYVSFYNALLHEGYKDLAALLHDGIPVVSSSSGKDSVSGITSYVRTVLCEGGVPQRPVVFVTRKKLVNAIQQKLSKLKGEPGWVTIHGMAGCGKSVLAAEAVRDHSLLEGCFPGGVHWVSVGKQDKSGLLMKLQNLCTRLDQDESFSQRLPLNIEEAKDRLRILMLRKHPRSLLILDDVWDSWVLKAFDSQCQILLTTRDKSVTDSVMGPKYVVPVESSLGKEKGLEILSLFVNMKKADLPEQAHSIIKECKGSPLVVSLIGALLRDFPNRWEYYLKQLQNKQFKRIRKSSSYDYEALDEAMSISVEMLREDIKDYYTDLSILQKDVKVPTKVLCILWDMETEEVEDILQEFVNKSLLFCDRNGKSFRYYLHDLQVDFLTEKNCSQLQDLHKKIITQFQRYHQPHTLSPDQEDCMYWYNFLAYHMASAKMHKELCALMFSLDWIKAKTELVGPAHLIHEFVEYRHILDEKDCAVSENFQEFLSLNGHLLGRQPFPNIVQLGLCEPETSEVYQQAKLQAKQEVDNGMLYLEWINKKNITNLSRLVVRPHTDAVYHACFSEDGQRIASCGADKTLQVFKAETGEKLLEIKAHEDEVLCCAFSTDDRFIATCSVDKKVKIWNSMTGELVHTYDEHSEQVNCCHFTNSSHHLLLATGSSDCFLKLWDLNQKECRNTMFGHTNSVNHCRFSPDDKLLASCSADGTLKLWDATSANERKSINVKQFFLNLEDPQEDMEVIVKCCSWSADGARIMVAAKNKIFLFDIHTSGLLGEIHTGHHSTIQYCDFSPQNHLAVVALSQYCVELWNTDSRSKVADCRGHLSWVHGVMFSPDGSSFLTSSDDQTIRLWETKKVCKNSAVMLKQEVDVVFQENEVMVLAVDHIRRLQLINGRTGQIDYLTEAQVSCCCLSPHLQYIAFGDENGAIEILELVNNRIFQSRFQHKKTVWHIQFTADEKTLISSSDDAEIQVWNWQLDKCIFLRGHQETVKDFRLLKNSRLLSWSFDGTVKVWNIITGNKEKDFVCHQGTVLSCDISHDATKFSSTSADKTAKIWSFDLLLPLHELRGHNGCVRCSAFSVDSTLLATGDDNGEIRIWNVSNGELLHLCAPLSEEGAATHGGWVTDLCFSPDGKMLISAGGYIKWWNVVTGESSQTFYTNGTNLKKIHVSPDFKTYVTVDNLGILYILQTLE

[26] = target: Dual specificity tyrosine-phosphorylation-regulated kinase 1A (Rattus norvegicus, UniProt Q63470); type: biochemical, Homo sapiens
[27] = reduction of Shn3 3'UTR-driven luciferase in osteoblasts – cell-based, Clone20 osteoblasts, firefly luciferase, cherry-picked, dose response (AID 624132); type: functional;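 note: firefly luciferase luminescence from reporter carrying the Shn3 3'UTR in osteoblasts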

Chain of Tyrosine-protein kinase FRK (P42685 whole entry): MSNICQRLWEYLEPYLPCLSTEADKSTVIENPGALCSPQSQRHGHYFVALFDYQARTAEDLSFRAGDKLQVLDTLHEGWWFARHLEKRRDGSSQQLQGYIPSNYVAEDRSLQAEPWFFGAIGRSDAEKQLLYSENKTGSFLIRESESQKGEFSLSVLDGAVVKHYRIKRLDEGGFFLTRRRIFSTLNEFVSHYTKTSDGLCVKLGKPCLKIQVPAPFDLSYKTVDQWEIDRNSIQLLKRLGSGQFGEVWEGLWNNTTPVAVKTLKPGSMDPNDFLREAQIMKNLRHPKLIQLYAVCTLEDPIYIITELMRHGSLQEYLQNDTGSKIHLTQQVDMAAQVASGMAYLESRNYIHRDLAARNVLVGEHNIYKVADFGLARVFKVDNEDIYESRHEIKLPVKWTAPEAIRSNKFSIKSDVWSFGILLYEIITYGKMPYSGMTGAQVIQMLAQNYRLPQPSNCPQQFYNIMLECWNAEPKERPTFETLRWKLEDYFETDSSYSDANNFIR
Chain of MAP kinase-interacting serine/threonine-protein kinase 2 (Q9HBH9 whole entry): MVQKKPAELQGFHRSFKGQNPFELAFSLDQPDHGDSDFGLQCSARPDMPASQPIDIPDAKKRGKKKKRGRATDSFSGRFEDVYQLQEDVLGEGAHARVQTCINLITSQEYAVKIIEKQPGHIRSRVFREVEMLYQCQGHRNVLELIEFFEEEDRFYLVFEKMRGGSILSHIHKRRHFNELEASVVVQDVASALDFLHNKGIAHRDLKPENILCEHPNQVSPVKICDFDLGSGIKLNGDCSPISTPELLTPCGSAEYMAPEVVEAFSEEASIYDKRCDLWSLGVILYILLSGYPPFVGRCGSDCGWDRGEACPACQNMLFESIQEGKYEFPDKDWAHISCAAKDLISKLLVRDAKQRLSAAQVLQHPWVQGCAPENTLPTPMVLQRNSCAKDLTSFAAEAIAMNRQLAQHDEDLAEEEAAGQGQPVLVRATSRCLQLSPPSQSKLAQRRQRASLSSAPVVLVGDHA
Chain of Death-associated protein kinase 3 (O43293 whole entry): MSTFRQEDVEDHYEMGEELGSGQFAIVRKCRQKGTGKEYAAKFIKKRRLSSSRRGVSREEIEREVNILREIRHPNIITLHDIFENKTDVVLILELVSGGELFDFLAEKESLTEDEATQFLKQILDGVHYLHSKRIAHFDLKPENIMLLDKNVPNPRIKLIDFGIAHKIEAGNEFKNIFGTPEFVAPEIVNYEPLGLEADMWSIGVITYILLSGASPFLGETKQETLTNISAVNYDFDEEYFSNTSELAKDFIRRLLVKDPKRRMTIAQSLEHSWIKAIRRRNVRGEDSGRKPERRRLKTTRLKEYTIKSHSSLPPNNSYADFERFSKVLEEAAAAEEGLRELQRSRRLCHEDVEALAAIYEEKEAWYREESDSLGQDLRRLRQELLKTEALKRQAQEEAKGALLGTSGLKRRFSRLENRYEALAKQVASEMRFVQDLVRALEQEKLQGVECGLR
Chain of BDNF/NT-3 growth factors receptor (Q16620 whole entry): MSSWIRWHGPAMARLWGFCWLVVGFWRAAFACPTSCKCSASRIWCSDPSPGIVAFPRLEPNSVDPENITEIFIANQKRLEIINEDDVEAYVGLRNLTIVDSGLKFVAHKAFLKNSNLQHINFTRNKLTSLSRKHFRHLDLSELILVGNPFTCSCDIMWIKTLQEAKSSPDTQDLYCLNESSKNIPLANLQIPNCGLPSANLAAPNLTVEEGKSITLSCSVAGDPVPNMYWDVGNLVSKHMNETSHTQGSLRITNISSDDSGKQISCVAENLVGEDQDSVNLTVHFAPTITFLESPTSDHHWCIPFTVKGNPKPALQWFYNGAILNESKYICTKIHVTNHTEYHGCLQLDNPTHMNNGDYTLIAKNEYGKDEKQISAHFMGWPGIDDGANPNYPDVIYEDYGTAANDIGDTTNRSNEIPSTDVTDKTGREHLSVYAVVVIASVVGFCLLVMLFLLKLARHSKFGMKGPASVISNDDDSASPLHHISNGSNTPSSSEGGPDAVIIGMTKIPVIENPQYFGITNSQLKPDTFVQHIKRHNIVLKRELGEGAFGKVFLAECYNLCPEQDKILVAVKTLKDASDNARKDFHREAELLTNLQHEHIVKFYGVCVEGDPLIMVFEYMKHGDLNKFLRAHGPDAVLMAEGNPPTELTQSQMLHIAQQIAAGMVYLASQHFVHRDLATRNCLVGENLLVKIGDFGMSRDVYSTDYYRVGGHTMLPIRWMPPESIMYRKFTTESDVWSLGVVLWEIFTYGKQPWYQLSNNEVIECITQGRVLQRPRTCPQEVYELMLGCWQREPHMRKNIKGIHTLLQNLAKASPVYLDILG
Chain of Glycogen synthase kinase-3 alpha (P49840 whole entry): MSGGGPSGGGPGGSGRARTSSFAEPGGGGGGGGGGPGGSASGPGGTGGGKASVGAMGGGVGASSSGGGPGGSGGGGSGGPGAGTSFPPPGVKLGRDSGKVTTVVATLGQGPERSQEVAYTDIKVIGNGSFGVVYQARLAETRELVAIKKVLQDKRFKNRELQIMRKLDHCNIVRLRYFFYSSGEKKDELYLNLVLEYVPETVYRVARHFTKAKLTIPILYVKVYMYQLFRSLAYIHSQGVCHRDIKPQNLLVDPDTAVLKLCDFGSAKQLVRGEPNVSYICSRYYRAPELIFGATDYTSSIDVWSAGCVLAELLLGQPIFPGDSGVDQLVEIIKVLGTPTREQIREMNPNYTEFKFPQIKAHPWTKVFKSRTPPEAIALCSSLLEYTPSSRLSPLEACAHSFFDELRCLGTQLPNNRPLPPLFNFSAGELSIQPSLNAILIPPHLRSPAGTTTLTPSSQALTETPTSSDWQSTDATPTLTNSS
Chain of Serine/threonine-protein kinase PLK1 (P53350 whole entry): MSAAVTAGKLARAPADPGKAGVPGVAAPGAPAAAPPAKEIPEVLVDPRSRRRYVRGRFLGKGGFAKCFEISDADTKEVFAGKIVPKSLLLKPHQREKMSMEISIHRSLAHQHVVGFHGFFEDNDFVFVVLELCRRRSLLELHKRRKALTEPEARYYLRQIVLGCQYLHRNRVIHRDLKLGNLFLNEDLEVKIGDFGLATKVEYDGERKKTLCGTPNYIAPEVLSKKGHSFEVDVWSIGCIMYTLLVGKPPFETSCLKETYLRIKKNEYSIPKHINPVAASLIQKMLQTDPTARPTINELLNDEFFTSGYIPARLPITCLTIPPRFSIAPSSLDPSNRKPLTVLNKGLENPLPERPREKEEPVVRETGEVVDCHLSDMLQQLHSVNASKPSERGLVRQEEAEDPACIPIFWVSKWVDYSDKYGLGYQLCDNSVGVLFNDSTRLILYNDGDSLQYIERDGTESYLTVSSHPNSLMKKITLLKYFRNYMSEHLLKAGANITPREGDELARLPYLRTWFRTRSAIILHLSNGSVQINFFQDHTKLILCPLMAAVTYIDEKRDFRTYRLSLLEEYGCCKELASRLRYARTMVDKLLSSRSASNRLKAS
Chain of Platelet-derived growth factor receptor beta (P09619 whole entry): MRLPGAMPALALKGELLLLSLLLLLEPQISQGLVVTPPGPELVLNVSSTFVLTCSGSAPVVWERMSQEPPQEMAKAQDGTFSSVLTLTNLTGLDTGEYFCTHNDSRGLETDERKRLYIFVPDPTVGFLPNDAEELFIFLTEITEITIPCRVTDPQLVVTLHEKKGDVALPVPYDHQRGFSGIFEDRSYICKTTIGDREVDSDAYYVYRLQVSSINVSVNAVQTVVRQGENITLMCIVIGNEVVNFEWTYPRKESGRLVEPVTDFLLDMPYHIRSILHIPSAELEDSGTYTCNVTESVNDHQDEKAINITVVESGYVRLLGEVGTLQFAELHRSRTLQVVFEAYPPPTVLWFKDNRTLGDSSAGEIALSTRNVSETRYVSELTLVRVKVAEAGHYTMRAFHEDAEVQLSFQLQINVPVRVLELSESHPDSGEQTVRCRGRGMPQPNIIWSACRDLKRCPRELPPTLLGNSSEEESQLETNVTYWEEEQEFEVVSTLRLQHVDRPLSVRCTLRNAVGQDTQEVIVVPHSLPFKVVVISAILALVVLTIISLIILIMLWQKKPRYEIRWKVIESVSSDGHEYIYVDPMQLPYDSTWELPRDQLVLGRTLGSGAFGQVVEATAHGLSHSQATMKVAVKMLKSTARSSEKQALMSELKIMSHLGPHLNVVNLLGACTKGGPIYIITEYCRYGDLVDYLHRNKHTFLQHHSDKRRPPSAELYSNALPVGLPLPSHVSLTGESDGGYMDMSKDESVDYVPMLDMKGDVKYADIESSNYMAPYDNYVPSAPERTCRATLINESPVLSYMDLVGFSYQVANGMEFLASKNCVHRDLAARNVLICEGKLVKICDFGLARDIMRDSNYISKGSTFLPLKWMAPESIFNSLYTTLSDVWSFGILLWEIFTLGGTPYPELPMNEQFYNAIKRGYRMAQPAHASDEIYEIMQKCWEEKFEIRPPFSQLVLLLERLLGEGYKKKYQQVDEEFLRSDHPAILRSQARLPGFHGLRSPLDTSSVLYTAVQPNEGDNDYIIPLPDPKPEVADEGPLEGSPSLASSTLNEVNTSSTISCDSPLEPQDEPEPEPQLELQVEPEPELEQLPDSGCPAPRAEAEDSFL
Chain of Cyclin-dependent kinase 9 (P50750 whole entry): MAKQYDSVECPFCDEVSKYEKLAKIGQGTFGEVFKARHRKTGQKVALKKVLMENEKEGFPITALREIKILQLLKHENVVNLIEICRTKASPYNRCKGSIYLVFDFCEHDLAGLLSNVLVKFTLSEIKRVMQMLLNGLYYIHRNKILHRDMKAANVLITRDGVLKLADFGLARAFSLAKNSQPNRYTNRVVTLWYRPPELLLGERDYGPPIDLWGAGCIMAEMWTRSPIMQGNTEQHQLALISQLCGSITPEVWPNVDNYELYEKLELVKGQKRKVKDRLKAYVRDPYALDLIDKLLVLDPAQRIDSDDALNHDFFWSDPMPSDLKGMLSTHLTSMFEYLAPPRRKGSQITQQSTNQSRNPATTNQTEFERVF

## CCc1oc2ccccc2c1C(=O)c1cc(Br)c(O)c(Br)c1 [BENZBROMARONE]
[1]
  EC50: 0.059 µM (active)
[2]
  IC50: 1.74 µM (active)
[3]
  IC50: 0.268 µM (active)
Cytochrome P450 2D6
  AC50: inactive

## N#Cc1ccc2[nH]c(O)c(-c3ccc(CN4CCOCC4)cn3)c2c1 [AZD-1080]
[4]
  Ki: > 2.51 µM (inactive)
[5]
  Ki: > 3.98 µM (inactive)
[6]
  Ki: > 3.98 µM (inactive)
[7]
  Ki: 5.01 µM (active)
[8]
  Ki: > 5.01 µM (inactive)
[9]
  Ki: > 5.01 µM (inactive)
[10]
  Ki: > 3.98 µM (inactive)
[11]
  Ki: > 2 µM (inactive)
[12]
  Ki: > 2.51 µM (inactive)
[13]
  Ki: > 2 µM (inactive)
[14]
  Ki: > 10 µM (inactive)
[15]
  Ki: > 2.51 µM (inactive)
Ephrin type-A receptor 2
  Ki: > 3.16 µM (inactive)
[16]
  Ki: > 1.58 µM (inactive)
[17]
  Ki: > 2.51 µM (inactive)
[18]
  Ki: > 1.58 µM (inactive)
[19]
  Ki: > 3.98 µM (inactive)
[20]
  Ki: > 7.94 µM (inactive)
[21]
  Ki: > 1.58 µM (inactive)
[22]
  Ki: > 3.98 µM (inactive)
[23]
  Ki: > 2.51 µM (inactive)

## O=C1C=C(N2CCOCC2)c2ccccc2C1=O
HEK293
  EC50: 8.79 µM (active)
[24]
  EC50: > 120 µM (not active)
[25]
  IC50: 1.27 µM (active)
[26]
  AC50: 5.14 µM (active)
[27]
  AC50: 7.16 µM (active)
